Results on 34 compounds are retold here after patent US10919859B2, “Benzylaminopyridylcyclopropanecarboxylic acids, pharmaceutical compositions and uses thereof” (Boehringer Ingelheim International GmbH, priority 2017, dated 2021).

As usually defined, the solubility is the concentration that dissolves in the medium under given conditions. A high value points to much dissolved substance. Usually EC50 stands for the concentration giving half of the maximal effect. Higher therefore signals a less potent agent. One may read the Solubility as how much of the substance goes into solution per volume. The low end stands for a poorly soluble substance, the high end for a readily soluble substance.

≈ marks a conversion by molar mass, not a printed value. Bounds are passed on as bounds.

Series [1] is described as follows: Aqueous solubility (buffer vs acetonitrile/water, LC-UV). The series is classed as physicochemical. As to conditions: for solubility at 24 h: aqueous buffer, kinetic from dmso stock, pH 2.2 buffer, 24 h shaking, 2.5% DMSO; for Solubility at pH value 2.2: pH 2.2. The protocol: The aqueous solubility of the compounds of the invention is determined by comparing the amount dissolved in buffer to the amount in an acetonitrile/water (1/1) solution. Starting from a 10 mM DMSO stock solution aliquots are diluted with acetonitrile/water (1/1) or buffer, respectively. After 24 h of shaking, the solutions are filtrated and analyzed by LC-UV. The amount dissolved in buffer is compared to the amount in the acetonitrile solution.

The next series has as its target human GPR40 receptor (Homo sapiens (Human), UniProt O14842). Nature of the series: IP1 accumulation measurements using the IPOne assay system. The series is classed as cell-based. The following applies: 1321N1 cells stably expressing human GPR40, 1 h at 37° C. The protocol: IP1 accumulation measurements using the IPOne assay system—1321N1 cells stably expressing human GPR40 receptor (Euroscreen, Belgium) are seeded 24 h before the assay in white 384-well plates in culture medium containing 10% FCS, 1% Na-Pyruvate and 400 μg/mL G418. IP1 is assayed according to the manufacturer's description (Cisbio Bioassays, France). In brief, the assay is started by substitution of the culture medium by stimulation buffer (Hepes 10 mM, CaCl2 1 mM, MgCl2 0.5 mM, KCl 4.2 mM, NaCl 146 mM, glucose 5.5 mM and LiCl 50 mM, pH 7.4). Cells are stimulated for 1 h at 37° C., 5% CO2 by addition of the compounds that are diluted in stimulation buffer containing LiCl. Assays are stopped by adding HTRF-conjugates (IP1-d2 and Anti-IP1 cryptate Tb) and lysis buffer, provided by the manufacturer. After an incubation time of 1 h at room temperature plates are measured using an EnVision™, Perkin Elmer. The obtained fluorescence ratios at 665/615 […] are then used to calculate the pEC50 values using Assay Explorer 3.3 Software (Accelrys, Inc.) by interpolation using an IP1 reference curve and subsequent sigmoidal curve fitting allowing for a variable hill slope.

[2] abbreviates: reference examples of WO 2013/178575.

Chain of human GPR40 receptor (O14842 whole entry): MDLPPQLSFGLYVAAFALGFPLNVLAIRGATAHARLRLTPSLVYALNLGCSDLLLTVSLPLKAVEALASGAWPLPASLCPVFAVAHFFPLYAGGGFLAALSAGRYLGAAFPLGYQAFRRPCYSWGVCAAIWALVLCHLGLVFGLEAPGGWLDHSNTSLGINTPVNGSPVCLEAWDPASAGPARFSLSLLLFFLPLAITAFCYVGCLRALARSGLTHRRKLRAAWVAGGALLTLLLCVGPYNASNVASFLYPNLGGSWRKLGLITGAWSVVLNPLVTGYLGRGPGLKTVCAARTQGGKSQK

As to `Cc1cc(OCCCS(C)(=O)=O)cc(C)c1-c1cccc(CNc2ccc([C@H]3CC3C(=O)O)nc2)c1` (stereo partly shown) [Example 1], in series [1] (examples in this invention), the solubility at 24 h is 83 µg/mL (≈ 163 µM). In addition, the EC50 at human GPR40 receptor is 50 nM.
The like results for `CC(C)(O)CCOc1ccc(-c2cc(CNc3ccc([C@H]4C[C@@H]4C(=O)O)nc3)ccc2C(F)(F)F)cc1` [Example 2, (1S,2S)-2-(5-{[4′-(3-Hydroxy-3-methyl-butoxy)-6-trifluoromethyl-biphenyl-3-ylmethyl]-amino}-pyridin-2-yl)-cyclopropanecarboxylic acid] were, in that order, 72 µg/mL (≈ 140 µM) and 17 nM.
For the compound `O=C(O)[C@H]1C[C@@H]1c1ccc(NCc2ccc(C(F)(F)F)c(-c3ccc(OCC4CC4)cc3)c2)cn1` [Example 3, (1S,2S)-2-{5-[(4′-Cyclopropylmethoxy-6-trifluoromethyl-biphenyl-3-ylmethyl)-amino]-pyridin-2-yl}-cyclopropanecarboxylic acid], in series [1] (examples in this invention), the solubility at 24 h worked out at 22 µg/mL (≈ 45.6 µM). On human GPR40 receptor, this compound returned an EC50 of 22 nM.
As for `O=C(O)[C@H]1C[C@@H]1c1ccc(NCc2ccc(C(F)(F)F)c(-c3ccc(OC(F)(F)F)cc3)c2)cn1` [Example 4, (1S,2S)-2-{5-[(4′-Trifluoromethoxy-6-trifluoromethyl-biphenyl-3-ylmethyl)-amino]-pyridin-2-yl}-cyclopropanecarboxylic acid], the solubility at 24 h in series [1] (examples in this invention) was 14 µg/mL (≈ 28.2 µM). Further, the EC50 on human GPR40 receptor amounted to 44 nM.
For the compound `Cc1cc(OCCC(C)(C)O)cc(C)c1-c1cc(CNc2ccc([C@H]3C[C@@H]3C(=O)O)nc2)ccc1C(F)(F)F` [Example 5], the solubility at 24 h in series [1] (examples in this invention) was less than 1 µg/mL. The compound further displayed a half-maximal effective concentration (EC50) at human GPR40 receptor of 12 nM.
In the case of `COc1ccc(-c2ccc(-c3cc(CNc4ccc([C@H]5C[C@@H]5C(=O)O)nc4)c(F)cc3F)cc2)nn1` [Example 6, (1S,2S)-2-(5-{[4,6-Difluoro-4′-(6-methoxy-pyridazin-3-yl)-biphenyl-3-ylmethyl]-amino}-pyridin-2-yl)-cyclopropanecarboxylic acid], the solubility at 24 h in series [1] (examples in this invention) was 56 µg/mL (≈ 115 µM). On human GPR40 receptor, this compound displayed an EC50 of 64 nM.
Consider `COc1ccc(-c2ccc(-c3cc(CNc4ccc([C@H]5C[C@@H]5C(=O)O)nc4)c(F)cc3F)cc2)nc1` [Example 7, (1S,2S)-2-(5-{[4,6-Difluoro-4′-(5-methoxy-pyridin-2-yl)-biphenyl-3-ylmethyl]-amino}-pyridin-2-yl)-cyclopropanecarboxylic acid], for which the solubility at 24 h in series [1] (examples in this invention) amounted to 77 µg/mL (≈ 158 µM). At human GPR40 receptor, this compound yielded a 50% effective concentration (EC50) of 27 nM.
Taken in the same sequence, the figures for `Cc1cc(N)ccc1-c1cc(CNc2ccc([C@H]3C[C@@H]3C(=O)O)nc2)c(F)cc1F` [Example 8, (1S,2S)-2-{5-[(4′-Amino-4,6-difluoro-2′-methyl-biphenyl-3-ylmethyl)-amino]-pyridin-2-yl}-cyclopropanecarboxylic acid] were more than 96 µg/mL and 127 nM.
In series [1] (examples in this invention), `O=C(O)[C@H]1C[C@@H]1c1ccc(NCc2cc(-c3ccc(O)c(Cl)c3)c(F)cc2F)cn1` [Example 9, (1S,2S)-2-{5-[(3′-Chloro-4,6-difluoro-4′-hydroxy-biphenyl-3-ylmethyl)-amino]-pyridin-2-yl}-cyclopropanecarboxylic acid] came in with a solubility at 24 h of 58 µg/mL (≈ 135 µM). This compound showed an EC50 on human GPR40 receptor of 943 nM.
The like results for `COc1c(F)cc(-c2cc(CNc3ccc([C@H]4C[C@@H]4C(=O)O)nc3)c(F)cc2F)cc1F` [Example 10, (1S,2S)-2-{5-[(4,6,3′,5′-Tetrafluoro-4′-methoxy-biphenyl-3-ylmethyl)-amino]-pyridin-2-yl}-cyclopropanecarboxylic acid] were, in that order, 61 µg/mL (≈ 137 µM) and 52 nM.
Take `Cc1cc(-c2nnn(C)n2)cc(C)c1-c1ccc(F)c(CNc2ccc([C@H]3C[C@@H]3C(=O)O)nc2)c1` [Example 11]: in series [1], the “Solubility at pH value 2.2” value was found to be 56 μg/mL. In addition, the EC50 on human GPR40 receptor was determined as 8 nM.
The like results for `Cc1cc(OCc2ccccc2)cc(C)c1-c1ccc(F)c(CNc2ccc([C@H]3C[C@@H]3C(=O)O)nc2)c1` [Example 12] were, in that order, 27 μg/mL and 44 nM.
Taken in the same sequence, the figures for `Cc1cc(OCC(C)(C)C#N)cc(C)c1-c1ccc(F)c(CNc2ccc([C@H]3C[C@@H]3C(=O)O)nc2)c1` [Example 13] were 49 μg/mL and 59 nM.
Turning to `Cc1cc(OCC(=O)O)cc(C)c1-c1ccc(F)c(CNc2ccc([C@H]3C[C@@H]3C(=O)O)nc2)c1` [Example 14], the “Solubility at pH value 2.2” value in series [1] was 71 μg/mL. Besides, a half-maximal effect on human GPR40 receptor (EC50) was put at 4520 nM.
In the case of `Cc1cc(-c2ccn(C)c(=O)c2)cc(C)c1-c1ccc(F)c(CNc2ccc([C@H]3C[C@@H]3C(=O)O)nc2)c1` [Example 16], in series [1], the “Solubility at pH value 2.2” value is 79 μg/mL. Further, on human GPR40 receptor, the EC50 turned out to be 29 nM.
Take `Cc1cc(-c2ccn(C)c(=O)c2)cc(C)c1-c1ccc(F)c(CNc2ccc([C@H]3C[C@@H]3C(=O)O)nc2)c1` [Example 17]: in series [1], the “Solubility at pH value 2.2” value was determined as 73 μg/mL. The compound also returned an EC50 at human GPR40 receptor of 18 nM.
The like results for `Cc1cc(-c2cc(=O)n(C)cn2)cc(C)c1-c1ccc(F)c(CNc2ccc([C@H]3C[C@@H]3C(=O)O)nc2)c1` [Example 18] were, in that order, 72 μg/mL and 23 nM.
Taken in the same sequence, the figures for `Cc1cc(OCCC(C)(C)O)cc(C)c1-c1ccc(F)c(CNc2ccc([C@H]3C[C@@H]3C(=O)O)nc2)c1` [Example 19] were 81 μg/mL and 27 nM.
Taken in the same sequence, the figures for `Cc1cc(OC2CCOCC2)cc(C)c1-c1ccc(F)c(CNc2ccc([C@H]3C[C@@H]3C(=O)O)nc2)c1` [Example 20] were 66 μg/mL and 35 nM.
On to `Cc1cc(OCC(C)(C)O)cc(C)c1-c1ccc(F)c(CNc2ccc([C@H]3C[C@@H]3C(=O)O)nc2)c1` [Example 21], for which the “Solubility at pH value 2.2” value in series [1] was found to be 82 μg/mL. At human GPR40 receptor, this compound had an EC50 of 101 nM.
Taken in the same sequence, the figures for `Cc1cc(CO)cc(C)c1-c1ccc(F)c(CNc2ccc([C@H]3C[C@@H]3C(=O)O)nc2)c1` [Example 22] were 48 μg/mL and 206 nM.
The like results for `O=C(O)[C@H]1C[C@@H]1c1ccc(NCc2cc(-c3c(F)cc(F)cc3F)ccc2F)cn1` [Example 23] were, in that order, 53 μg/mL and 505 nM.
Taken in the same sequence, the figures for `Cc1cc(O[C@@H]2CCOC2)cc(C)c1-c1ccc(F)c(CNc2ccc([C@H]3C[C@@H]3C(=O)O)nc2)c1` [Example 24] were 64 μg/mL and 44 nM.
As for `Cc1cc(O[C@H]2CCOC2)cc(C)c1-c1ccc(F)c(CNc2ccc([C@H]3C[C@@H]3C(=O)O)nc2)c1` [Example 25], in series [1], the “Solubility at pH value 2.2” value is on record as 69 μg/mL. At human GPR40 receptor, this compound registered a 50% effective concentration (EC50) of 28 nM.
The like results for `Cc1cc(OCC2CCOC2)cc(C)c1-c1ccc(F)c(CNc2ccc([C@H]3C[C@@H]3C(=O)O)nc2)c1` (stereo partly shown) [Example 26] were, in that order, 70 μg/mL and 39 nM.
Taken in the same sequence, the figures for `Cc1cc(C(N)=O)cc(C)c1-c1ccc(F)c(CNc2ccc([C@H]3C[C@@H]3C(=O)O)nc2)c1` [Example 27] were 62 μg/mL and 401 nM.
The like results for `COc1cc(OC)c(Cl)c(-c2ccc(F)c(CNc3ccc([C@H]4C[C@@H]4C(=O)O)nc3)c2)c1Cl` [Example 28] were, in that order, 18 μg/mL and 30 nM.
Consider `N#CC1(c2ccccc2-c2ccc(F)c(CNc3ccc([C@H]4C[C@@H]4C(=O)O)nc3)c2)CC1` [Example 29], for which the “Solubility at pH value 2.2” value in series [1] worked out at 57 μg/mL. For the same compound, the midpoint of the response on human GPR40 receptor, the EC50, lay at 696 nM.
Taken in the same sequence, the figures for `O=C(O)[C@H]1C[C@@H]1c1ccc(NCc2cc(-c3c(Cl)cccc3Cl)ccc2F)cn1` [Example 30] were 53 μg/mL and 34 nM.
Consider `COc1cc(OC)c(-c2ccc(F)c(CNc3ccc([C@H]4C[C@@H]4C(=O)O)nc3)c2)c(OC)c1` [Example 31], for which, in series [1], the “Solubility at pH value 2.2” value came to 88 μg/mL. Moreover, on human GPR40 receptor, it took 453 nM to reach a half-maximal effect (EC50).
For the compound `Cc1cc(C(=O)NCC(C)(C)O)cc(C)c1-c1ccc(F)c2c1CC[C@H]2Oc1ccc([C@H]2C[C@@H]2C(=O)O)cc1` [WO 2013/178575 Example 15, reference compound], the solubility at 24 h in series [1] (setting [2]) is less than 1 µg/mL.
`Cc1cc(OCCC(C)(C)O)cc(C)c1-c1ccc(F)c2c1CC[C@H]2Oc1ccc([C@H]2C[C@@H]2C(=O)O)cc1` [WO 2013/178575 Example 17, reference compound]: the solubility at 24 h in series [1] (setting [2]) is less than 1 µg/mL.
The compound `Cc1cc(-c2nnn(C)n2)cc(C)c1-c1ccc(F)c2c1CC[C@H]2Oc1ccc([C@H]2C[C@@H]2C(=O)O)cc1` [WO 2013/178575 Example 45, reference compound] came in with a solubility at 24 h in series [1] (setting [2]) of less than 1 µg/mL.
Same read-out and setting: with `Cc1c(C#N)cccc1-c1ccc(F)c2c1CC[C@H]2Oc1ccc([C@H]2C[C@@H]2C(=O)O)cc1` [WO 2013/178575 Example 54, reference compound] the figure was less than 1 µg/mL.
